Measured values as given in paper PMC4621751 (The Journal of General Physiology, 2015).

Assays:
[1] = target: T1, human Elk1 (HsElk1, Kv12.1, KCNH8) (Homo sapiens, UniProt Q96L42); assay: inside-out patch clamp, Hill fit of activation time constant; assay type: cell-based
T1 sequence (Q96L42 1-1107): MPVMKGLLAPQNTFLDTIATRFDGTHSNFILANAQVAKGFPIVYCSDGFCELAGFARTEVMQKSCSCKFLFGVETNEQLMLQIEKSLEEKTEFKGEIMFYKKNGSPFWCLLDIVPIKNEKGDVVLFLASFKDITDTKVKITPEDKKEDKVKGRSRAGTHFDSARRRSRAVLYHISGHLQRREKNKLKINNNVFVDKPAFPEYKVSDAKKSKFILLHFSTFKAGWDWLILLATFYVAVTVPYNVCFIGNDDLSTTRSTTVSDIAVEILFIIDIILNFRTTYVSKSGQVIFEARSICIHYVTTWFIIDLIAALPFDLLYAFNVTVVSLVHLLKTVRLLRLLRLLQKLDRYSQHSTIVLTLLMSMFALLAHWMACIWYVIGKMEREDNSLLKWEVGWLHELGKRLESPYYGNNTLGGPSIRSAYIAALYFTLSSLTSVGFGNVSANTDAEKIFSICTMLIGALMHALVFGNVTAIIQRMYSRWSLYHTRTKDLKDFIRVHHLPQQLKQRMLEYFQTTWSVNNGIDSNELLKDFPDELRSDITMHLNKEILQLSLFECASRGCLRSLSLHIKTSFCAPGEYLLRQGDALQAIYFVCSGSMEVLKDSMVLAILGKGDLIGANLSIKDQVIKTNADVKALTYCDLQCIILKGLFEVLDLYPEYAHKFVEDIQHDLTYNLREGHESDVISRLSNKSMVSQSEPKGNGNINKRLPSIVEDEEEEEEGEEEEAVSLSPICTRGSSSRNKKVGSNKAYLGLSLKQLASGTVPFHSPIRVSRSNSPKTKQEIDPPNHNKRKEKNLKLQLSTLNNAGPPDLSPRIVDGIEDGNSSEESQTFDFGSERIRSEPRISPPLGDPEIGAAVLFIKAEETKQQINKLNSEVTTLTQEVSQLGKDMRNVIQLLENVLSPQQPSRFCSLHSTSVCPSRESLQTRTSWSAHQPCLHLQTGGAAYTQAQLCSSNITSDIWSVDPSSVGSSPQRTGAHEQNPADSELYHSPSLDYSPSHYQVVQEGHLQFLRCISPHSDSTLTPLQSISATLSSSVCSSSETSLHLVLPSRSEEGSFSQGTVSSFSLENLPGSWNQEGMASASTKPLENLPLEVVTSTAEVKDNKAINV

[2] = target: T1, human Elk1 (HsElk1, Kv12.1, KCNH8); assay: inside-out patch clamp, activation time constant; assay type: biochemical; details: -20 mV, intracellular application, excised patch, pH 7.2

EC50 [1] | SMILES | fold change of τact at 10 μM [2]
12.7 ± 2.2 µM | CCCCCCCC(=O)OC[C@H](COP(=O)(O)O[C@@H]1[C@H](O)[C@H](O)[C@@H](OP(=O)(O)O)[C@H](OP(=O)(O)O)[C@H]1O)OC(=O)CCCCCCC [diC8-PIP2] | 
 | CCCCCCCC(=O)OC[C@H](COP(=O)(O)O[C@H]1[C@H](O)[C@@H](OP(=O)(O)O)[C@H](OP(=O)(O)O)[C@@H](OP(=O)(O)O)[C@H]1O)OC(=O)CCCCCCC [diC8-PIP3] | PIP3 slowed activation significantly more than PIP2
